According to patent US11414406B2, “Antagonists of the muscarinic acetylcholine receptor M4” (Vanderbilt University, priority 2018, dated 2022):
pIC50: −log10 of the molar value. Read-outs that look alike come from different tables or passages of the source.

Target: T1, Human M4 (Homo sapiens, UniProt P08173)
T1 construct: expressed in transfected cells
T1 sequence (P08173 1-479): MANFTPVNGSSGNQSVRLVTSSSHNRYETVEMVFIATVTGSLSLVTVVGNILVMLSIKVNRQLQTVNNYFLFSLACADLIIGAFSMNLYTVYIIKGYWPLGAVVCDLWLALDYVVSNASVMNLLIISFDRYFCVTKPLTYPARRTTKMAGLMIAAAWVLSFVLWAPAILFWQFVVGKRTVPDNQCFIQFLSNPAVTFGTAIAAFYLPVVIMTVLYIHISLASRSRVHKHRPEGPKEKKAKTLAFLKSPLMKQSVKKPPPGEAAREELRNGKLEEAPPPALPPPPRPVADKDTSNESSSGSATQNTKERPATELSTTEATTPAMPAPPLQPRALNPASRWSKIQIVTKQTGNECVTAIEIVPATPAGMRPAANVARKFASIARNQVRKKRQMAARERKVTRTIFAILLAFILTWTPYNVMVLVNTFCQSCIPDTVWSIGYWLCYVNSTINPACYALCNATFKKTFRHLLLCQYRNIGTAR
Experiment: mAChR M4 cell-based functional assay (calcium flux, decrease of EC80 acetylcholine response)
Settings: for pIC50: decrease of response to EC80 acetylcholine
Procedure: Human M4 cDNA, along with the chimeric G protein Gqi5, were transfected into Chinese hamster ovary (CHO-K1) cells purchased from the American Type Culture Collection using Lipofectamine2000. M4/Gqi5/CHO cells were grown in Ham's F-12 medium containing 10% heat-inactivated fetal bovine serum (FBS), 20 mM HEPES, 500 μg/mL G418 sulfate, and 200 μg/mL Hygromycin B.
For high throughput measurement of agonist-evoked increases in intracellular calcium, CHO-K1 cells stably expressing muscarinic receptors were plated in growth medium lacking G418 and hygromycin at 15,000 cells/20 μL/well in Greiner 384-well black-walled, tissue culture (TC)-treated, clear-bottom plates (VWR). Cells were incubated overnight at 37° C. and 5% CO2. The next day, cells were washed using an ELX 405 (BioTek) with assay buffer; the final volume was then aspirated to 20 μL. Next, 20 μL of a 2.3 μM stock of Fluo-4/acetoxymethyl ester (Invitrogen, Carlsbad, Calif.), prepared as a 2.3 mM stock in DMSO and mixed in a 1:1 ratio with 10% (w/v) Pluronic F-127 and diluted in assay buffer, was added to the wells and the cell plates were incubated for 50 min at 37° C. and 5% CO2. Dye was removed by washing with the ELX 405 and the final volume was aspirated to 20 μL. Compound master plates were formatted in a 10 point concentration-response curve (CRC) format (1:3 dilutions) in 100% DMSO with a starting concentration of 10 or 1 mM using a BRAVO liquid handler (Agilent). Test compound CRCs were then transferred to daughter plates (240 nL) using the Echo acoustic plate reformatter (Labcyte, Sunnyvale, Calif.) and then diluted into assay buffer (40 μL) to a 2× stock using a Thermo Fisher Combi (Thermo Fisher Scientific, Waltham, Mass.).
Calcium flux was measured using the Functional Drug Screening System (FDSS) 6000 or 7000 (Hamamatsu Corporation, Tokyo, Japan) as an increase in the fluorescent static ratio. Compounds were applied to cells (20 μL, 2×) using the automated system of the FDSS at 2 seconds into the protocol and the data were collected at 1 Hz. At 143 s, 10 μL of an EC20 concentration of the muscarinic receptor agonist acetylcholine was added (5×), followed by the addition of 12 μL of an EC80 concentration of acetylcholine at the 268 s time point (5×). Agonist activity was analyzed as a concentration-dependent increase in calcium mobilization upon compound addition. Positive allosteric modulator activity was analyzed as a concentration-dependent increase in the EC20 acetylcholine response. Antagonist activity was analyzed as a concentration-dependent decrease in the EC80 acetylcholine response; for the purposes of the tables herein, an IC50 (inhibitory concentration 50) was calculated as a concentration-dependent decrease of the response elicited by an EC80 concentration of acetylcholine. Concentration-response curves were generated using a four-parameter logistical equation in XLFit curve fitting software (HMS, Bridgewater, N.J.) for Excel (Microsoft, Redmond, Wash.) or Prism (GraphPad Software, Inc., San Diego, Calif.) or the Dotmatics software platform (Dotmatics, Bishop's Stortford, UK).
Compounds were synthesized as described above. Activity (IC50 and Emin) was determined in the inAChR M4 cell-based functional assay as described above and the data are shown in Table 2. The compound numbers correspond to the compound numbers used in Examples 1 and 2 and Tables 1 and 2.

[1] = M4/Gqi5/CHO-K1 cells, % ACh maximum at 30 μM, read-out: Emin (% ACh maximum at 30 μM)

Row | remaining activity at 30 µM [1] [%] | pIC50 (M4/Gqi5/CHO-K1 cells) | Compound | remaining activity at 30 µM (CHO-K1, read-out: Emin (% ACh maximum at 30 μM)) [%]
1 | 29 |  | Fc1cccc(CN2C[C@@H]3[C@H](C2)[C@H]3Nc2ccc(-c3cc(F)ccc3Cl)nn2)c1 [Compound 22, (1R,5S,6s)-N-[6-(2-chloro-5-fluoro-phenyl)pyridazin-3-yl]-3-[(3-fluorophenyl)methyl]-3-azabicyclo[3.1.0]hexan-6-amine] | 
2 | 27 |  | Cn1cc2cc(-c3ccc(N[C@H]4[C@@H]5CN(CC6CCOCC6)C[C@@H]54)nn3)ccc2n1 [Compound 18, (1R,5S,6s)-N-[6-(2-methylindazol-5-yl)pyridazin-3-yl]-3-(tetrahydropyran-4-ylmethyl)-3-azabicyclo[3.1.0]hexan-6-amine] | 
3 | 36 |  | Fc1ccc(F)c(-c2ccc(N[C@H]3[C@@H]4CN(Cc5ccc6c(c5)OCO6)C[C@@H]43)nn2)c1 [Compound 35, (1R,5S,6s)-3-(1,3-benzodioxol-5-ylmethyl)-N-[6-(2,5-difluorophenyl)pyridazin-3-yl]-3-azabicyclo[3.1.0]hexan-6-amine] | 
4 | 5 | 7.00 | Cc1nn(C)cc1-c1ccc(N[C@H]2[C@@H]3CN(CC4CC5C=CC4C5)C[C@@H]32)nn1 (stereo partly drawn) [Compound 2, (1R,5S,6s)-3-(5-bicyclo[2.2.1]hept-2-enylmethyl)-N-[6-(1,3-dimethylpyrazol-4-yl)pyridazin-3-yl]-3-azabicyclo[3.1.0]hexan-6-amine] | 
5 | 8 | 5.95 | Fc1ccc(Cl)c(-c2ccc(N[C@H]3[C@@H]4CN(CC5CCOCC5)C[C@@H]43)nn2)c1 [Compound 12, (1R,5S,6s)-N-[6-(2-chloro-5-fluoro-phenyl)pyridazin-3-yl]-3-(tetrahydropyran-4-ylmethyl)-3-azabicyclo[3.1.0]hexan-6-amine] | 
6 | 27 |  | Fc1cccc(-c2ccc(N[C@H]3[C@@H]4CN(CC5CCOCC5)C[C@@H]43)nn2)c1F [Compound 31, (1R,5S,6s)-N-[6-(2,3-difluorophenyl)pyridazin-3-yl]-3-(tetrahydropyran-4-ylmethyl)-3-azabicyclo[3.1.0]hexan-6-amine] | 
7 | 25 |  | Fc1cccc(-c2ccc(N[C@H]3[C@@H]4CN(CC5CCOCC5)C[C@@H]43)nn2)c1 [Compound 9, (1R,5S,6s)-N-[6-(3-fluorophenyl)pyridazin-3-yl]-3-(tetrahydropyran-4-ylmethyl)-3-azabicyclo[3.1.0]hexan-6-amine] | 
8 | 12 |  | Fc1ccc(-c2ccc(N[C@H]3[C@@H]4CN(CC5CCOCC5)C[C@@H]43)nn2)c(Cl)c1 [Compound 14, (1R,5S,6s)-N-[6-(2-chloro-4-fluoro-phenyl)pyridazin-3-yl]-3-(tetrahydropyran-4-ylmethyl)-3-azabicyclo[3.1.0]hexan-6-amine] | 
9 | 30 |  | c1cc(C2CC2)ncc1-c1ccc(N[C@H]2[C@@H]3CN(CC4CCOCC4)C[C@@H]32)nn1 [Compound 21, (1R,5S,6s)-N-[6-(6-cyclopropyl-3-pyridyl)pyridazin-3-yl]-3-(tetrahydropyran-4-ylmethyl)-3-azabicyclo[3.1.0]hexan-6-amine] | 
10 | 40 | < 5.00 | Cc1cc(CN2C[C@@H]3[C@H](C2)[C@H]3Nc2ccc(-c3ccc4nn(C)cc4c3)nn2)nn1C [Compound 38, (1R,5S,6s)-3-[(1,5-dimethylpyrazol-3-yl)methyl]-N-[6-(2-methylindazol-5-yl)pyridazin-3-yl]-3-azabicyclo[3.1.0]hexan-6-amine] | 
11 | 16 |  | c1cc2c(cc1-c1ccc(N[C@H]3[C@@H]4CN(CC5CCOCC5)C[C@@H]43)nn1)OCO2 [Compound 30, (1R,5S,6s)-N-[6-(1,3-benzodioxol-5-yl)pyridazin-3-yl]-3-(tetrahydropyran-4-ylmethyl)-3-azabicyclo[3.1.0]hexan-6-amine] | 
12 | 4 | 7.59 | CC(C)(C)CCN1C[C@@H]2[C@H](C1)[C@H]2Nc1ccc(-c2cc(F)ccc2Cl)nn1 [Compound 27, (1R,5S,6s)-N-[6-(2-chloro-5-fluoro-phenyl)pyridazin-3-yl]-3-(3,3-dimethylbutyl)-3-azabicyclo[3.1.0]hexan-6-amine] | 
13 | 13 | 5.42 | c1cnc2ccc(-c3ccc(N[C@H]4[C@@H]5CN(CC6CCOCC6)C[C@@H]54)nn3)cc2c1 [Compound 17, (1R,5S,6s)-N-[6-(6-quinolyl)pyridazin-3-yl]-3-(tetrahydropyran-4-ylmethyl)-3-azabicyclo[3.1.0]hexan-6-amine] | 
14 | 40 |  | Fc1ccc(-c2ccc(N[C@H]3[C@@H]4CN(CC5CCOCC5)C[C@@H]43)nn2)c(F)c1 [Compound 32, (1R,5S,6s)-N-[6-(2,4-difluorophenyl)pyridazin-3-yl]-3-(tetrahydropyran-4-ylmethyl)-3-azabicyclo[3.1.0]hexan-6-amine] | 
15 | 38 |  | Cc1cc(CN2C[C@@H]3[C@H](C2)[C@H]3Nc2ccc(-c3cc(F)ccc3F)nn2)nn1C [Compound 36, (1R,5S,6s)-N-[6-(2,5-difluorophenyl)pyridazin-3-yl]-3-[(1,5-dimethylpyrazol-3-yl)methyl]-3-azabicyclo[3.1.0]hexan-6-amine] | 
16 |  |  | Cc1nn(C)cc1-c1ccc(CN[C@H]2[C@@H]3CN(CCC(C)(C)C)C[C@@H]32)nn1 [Compound 4, (1R,5S,6s)-N-((6-(1,3-dimethyl-1H-pyrazol-4-yl)pyridazin-3-yl)methyl)-3-(3,3-dimethylbutyl)-3-azabicyclo[3.1.0]hexan-6-amine] | 36.7
17 | 38 |  | Fc1ccccc1-c1ccc(N[C@H]2[C@@H]3CN(CC4CCOCC4)C[C@@H]32)nn1 [Compound 8, (1R,5S,6s)-N-[6-(2-fluorophenyl)pyridazin-3-yl]-3-(tetrahydropyran-4-ylmethyl)-3-azabicyclo[3.1.0]hexan-6-amine] | 
18 | 14 | 5.50 | Fc1cccc(Cl)c1-c1ccc(N[C@H]2[C@@H]3CN(CC4CCOCC4)C[C@@H]32)nn1 [Compound 15, (1R,5S,6s)-N-[6-(2-chloro-6-fluoro-phenyl)pyridazin-3-yl]-3-(tetrahydropyran-4-ylmethyl)-3-azabicyclo[3.1.0]hexan-6-amine] | 
19 | 4 | 6.59 | CC(C)(C)CCN1C[C@@H]2[C@H](C1)[C@H]2Nc1ccc(-c2cc(F)ccc2F)nn1 [Compound 37, (1R,5S,6s)-N-[6-(2,5-difluorophenyl)pyridazin-3-yl]-3-(3,3-dimethylbutyl)-3-azabicyclo[3.1.0]hexan-6-amine] | 
20 | 28 |  | Fc1ccc(F)c(-c2ccc(N[C@H]3[C@@H]4CN(CC5CCOCC5)C[C@@H]43)nn2)c1 [Compound 16, (1R,5S,6s)-N-[6-(2,5-difluorophenyl)pyridazin-3-yl]-3-(tetrahydropyran-4-ylmethyl)-3-azabicyclo[3.1.0]hexan-6-amine] | 
